Measurements taken from patent publication US6881741B2 (ViroChem Pharma Inc., priority 2001, dated 2005).

What follows are compounds tested against recombinant HCV NS5B (HCV RNA-dependent RNA polymerase) (Hepatitis C virus genotype 1b, UniProt P26663) (assay: biochemical). Conditions: related polymerase activity (Example 27 list); read-out: IC50.
Chain of recombinant HCV NS5B (HCV RNA-dependent RNA polymerase) (P26663 2420-3010 limits assumed): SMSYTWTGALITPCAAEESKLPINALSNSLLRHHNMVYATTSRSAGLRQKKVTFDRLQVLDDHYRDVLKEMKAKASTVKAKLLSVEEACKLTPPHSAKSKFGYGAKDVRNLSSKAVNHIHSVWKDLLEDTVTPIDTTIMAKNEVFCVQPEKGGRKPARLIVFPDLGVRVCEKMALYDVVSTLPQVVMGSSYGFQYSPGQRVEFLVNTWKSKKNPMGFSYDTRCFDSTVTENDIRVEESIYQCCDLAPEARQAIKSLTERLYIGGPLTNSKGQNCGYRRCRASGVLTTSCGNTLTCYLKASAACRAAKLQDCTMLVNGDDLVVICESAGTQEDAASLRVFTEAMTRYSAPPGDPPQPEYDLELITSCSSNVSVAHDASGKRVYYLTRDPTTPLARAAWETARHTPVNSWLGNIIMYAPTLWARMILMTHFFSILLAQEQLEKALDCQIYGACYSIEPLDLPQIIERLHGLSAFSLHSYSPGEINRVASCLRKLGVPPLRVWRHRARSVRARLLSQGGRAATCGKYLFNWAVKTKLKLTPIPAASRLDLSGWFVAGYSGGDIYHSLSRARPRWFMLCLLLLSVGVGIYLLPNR
Work on `CCCCc1ccc(C(=O)N(C)c2cc(-c3ccccc3)sc2C(=O)O)cc1` [Compound 188, 3-[(4-BUTYL-BENZOYL)-METHYL-AMINO]-5-PHENYL-THIOPHENE-2-CARBOXYLIC ACID] yielded an IC50 of over 20 µM. `O=C(O)c1sc(-c2ccccc2)cc1NS(=O)(=O)c1ccccc1CCl` [Compound 189, 3-(2-CHLOROMETHYL-BENZENESULFONYLAMINO)-5-PHENYL-THIOPHENE-2-CARBOXYLIC ACID] was tested, and the IC50 was 5 to 20 µM. `Cc1ccccc1S(=O)(=O)Nc1cc(-c2ccc(O)cc2)sc1C(=O)O` [Compound 190, 5-(4-HYDROXY-PHENYL)-3-(TOLUENE-2-SULFONYLAMINO)-THIOPHENE-2-CARBOXYLIC ACID] was tested, and the IC50 was under 5 µM. Work on `Cc1ccccc1S(=O)(=O)Nc1cc(-c2ccc(Cl)cn2)sc1C(=O)O` [Compound 191, 5-(5-CHLORO-PYRIDIN-2-YL)-3-(TOLUENE-2-SULFONYLAMINO)-THIOPHENE-2-CARBOXYLIC ACID] yielded an IC50 of under 5 µM. `Cc1ccc(C(=O)N(C)c2cc(-c3ccc(Cl)cc3)sc2C(=O)O)cc1` [Compound 192, 5-(4-CHLORO-PHENYL)-3-[METHYL-(4-METHYL-BENZOYL)-AMINO]-THIOPHENE-2-CARBOXYLIC ACID] showed an IC50 of 5 to 20 µM. Work on `Cc1ccc(C(=O)N(C)c2cc(-c3ccc(C#N)cc3)sc2C(=O)O)cc1` [Compound 193, 5-(4-CYANO-PHENYL)-3-[METHYL-(4-METHYL-BENZOYL)-AMINO]-THIOPHENE-2-CARBOXYLIC ACID] yielded an IC50 of 5 to 20 µM. In the case of `Cc1ccc(C(=O)N(C)c2cc(-c3ccc([N+](=O)[O-])cc3)sc2C(=O)O)cc1` [Compound 194, 3-[METHYL-(4-METHYL-BENZOYL)-AMINO]-5-(4-NITRO-PHENYL)-THIOPHENE-2-CARBOXYLIC ACID], the IC50 is reported as 5 to 20 µM. `Cc1ccc(C(=O)N(C)c2cc(-c3ccc(CO)cc3)sc2C(=O)O)cc1` [Compound 195, 5-(4-HYDROXYMETHYL-PHENYL)-3-[METHYL-(4-METHYL-BENZOYL)-AMINO]-THIOPHENE-2-CARBOXYLIC ACID] was tested, and the IC50 was 5 to 20 µM. With `Cc1ccc(C(=O)N(C)c2cc(-c3cccc([N+](=O)[O-])c3)sc2C(=O)O)cc1` [Compound 196, 3-[METHYL-(4-METHYL-BENZOYL)-AMINO]-5-(3-NITRO-PHENYL)-THIOPHENE-2-CARBOXYLIC ACID] the IC50 was under 5 µM. `Cc1ccc(C(=O)N(C)c2cc(-c3ccc(F)cc3)sc2C(=O)O)cc1` [Compound 197, 5-(4-FLUORO-PHENYL)-3-[METHYL-(4-METHYL-BENZOYL)-AMINO]-THIOPHENE-2-CARBOXYLIC ACID] showed an IC50 of under 5 µM. Compound `COc1ccc(-c2cc(N(C)C(=O)c3ccc(C)cc3)c(C(=O)O)s2)cc1` [Compound 198, 5-(4-METHOXY-PHENYL)-3-[METHYL-(4-METHYL-BENZOYL)-AMINO]-THIOPHENE-2-CARBOXYLIC ACID] has an IC50 of 5 to 20 µM. `Cc1ccc(C(=O)N(C)c2cc(-c3ccc(C)cc3)sc2C(=O)O)cc1` [Compound 199, 3-[METHYL-(4-METHYL-BENZOYL)-AMINO]-5-P-TOLYL-THIOPHENE-2-CARBOXYLIC ACID] showed an IC50 of 5 to 20 µM. Compound `Cc1ccc(C(=O)N(C)c2cc(-c3ccc(N)cc3)sc2C(=O)O)cc1` [Compound 200, 5-(4-AMINO-PHENYL)-3-[METHYL-(4-METHYL-BENZOYL)-AMINO]-THIOPHENE-2-CARBOXYLIC ACID] has an IC50 of 5 to 20 µM. For `O=C(O)c1sc(-c2ccccc2)cc1N(C(=O)c1ccc(Cl)cc1Cl)C1CCCC1` [Compound 201, 3-[CYCLOPENTYL-(2,4-DICHLORO-BENZOYL)-AMINO]-5-PHENYL-THIOPHENE-2-CARBOXYLIC ACID], the IC50 was under 5 µM. `Cc1ccccc1S(=O)(=O)Nc1cc(-c2ccc3c(c2)OCO3)sc1C(=O)O` [Compound 202, 5-BENZO[1,3]DIOXOL-5-YL-3-(TOLUENE-2-SULFONYLAMINO)-THIOPHENE-2-CARBOXYLIC ACID] was tested, and the IC50 was under 5 µM. `Cc1ccc(C(=O)N(CCO)c2cc(-c3ccccc3)sc2C(=O)O)cc1` [Compound 203, 3-[(2-HYDROXY-ETHYL)-(4-METHYL-BENZOYL)-AMINO]-5-PHENYL-THIOPHENE-2-CARBOXYLIC ACID] gave an IC50 of under 5 µM. `CC(C)CN(C(=O)c1ccc(Cl)cc1Cl)c1cc(-c2ccccc2)sc1C(=O)O` [Compound 204, 3-[(2,4-DICHLORO-BENZOYL)-ISOBUTYL-AMINO]-5-PHENYL-THIOPHENE-2-CARBOXYLIC ACID] gave an IC50 of under 5 µM. `COc1cc(C)ccc1C(=O)N(C)c1cc(-c2ccccc2)sc1C(=O)O` [Compound 205, 3-[(2-METHOXY-4-METHYL-BENZOYL)-METHYL-AMINO]-5-PHENYL-THIOPHENE-2-CARBOXYLIC ACID] showed an IC50 of 5 to 20 µM. For `Cc1ccc(C(=O)N(C)c2cc(-c3cccc(C#N)c3)sc2C(=O)O)cc1` [Compound 206, 5-(3-CYANO-PHENYL)-3-[METHYL-(4-METHYL-BENZOYL)-AMINO]-THIOPHENE-2-CARBOXYLIC ACID], the IC50 was under 5 µM. In the case of `Cc1ccc(C(=O)N(C)c2cc(-c3ccccc3Cl)sc2C(=O)O)cc1` [Compound 207, 5-(2-CHLORO-PHENYL)-3-[METHYL-(4-METHYL-BENZOYL)-AMINO]-THIOPHENE-2-CARBOXYLIC ACID], the IC50 is reported as 5 to 20 µM. `O=C(O)c1sc(-c2ccccc2)cc1N(C(=O)c1ccc(Cl)cc1Cl)c1ccccc1` [Compound 208, 3-[(2,4-DICHLORO-BENZOYL)-PHENYL-AMINO]-5-PHENYL-THIOPHENE-2-CARBOXYLIC ACID] showed an IC50 of under 5 µM. `CN(C(=O)c1ccc(C(F)(F)F)cc1)c1cc(-c2ccccc2)sc1C(=O)O` [Compound 209, 3-[4-(TRIFLUOROMETHYL-BENZOYL)METHYLAMINE]-5-PHENYL-THIOPHENE-2-CARBOXYLIC ACID] was tested, and the IC50 was 5 to 20 µM. For `CC(C)N(C(=O)c1ccc(Cl)cc1)c1cc(-c2ccccc2)sc1C(=O)O` [Compound 210, 3-[(4-CHLORO-BENZOYL)-ISOPROPYL-AMINO]-5-PHENYL-THIOPHENE-2-CARBOXYLIC ACID], the IC50 was under 5 µM. `Cc1ccc(C(=O)N(c2cc(-c3ccccc3)sc2C(=O)O)C(C)C)cc1` [Compound 211, 3-[ISOPROPYL-(4-METHYL-BENZOYL)-AMINO]-5-PHENYL-THIOPHENE-2-CARBOXYLIC ACID] gave an IC50 of under 5 µM. `Cc1ccc(C(=O)N(C)c2cc(-c3cc(F)cc(F)c3)sc2C(=O)O)cc1` [Compound 212, 5-(3,5-DIFLUORO-PHENYL)-3-[METHYL-(4-METHYL-BENZOYL)-AMINO]-THIOPHENE-2-CARBOXYLIC ACID] gave an IC50 of under 5 µM. `Cc1ccc(C(=O)N(C)c2cc(-c3cccc(F)c3)sc2C(=O)O)cc1` [Compound 213, 5-(3-FLUORO-PHENYL)-3-[METHYL-(4-METHYL-BENZOYL)-AMINO]-THIOPHENE-2-CARBOXYLIC ACID] was tested, and the IC50 was under 5 µM. `Cc1ccc(C(=O)N(C)c2cc(-c3ccc(F)cc3F)sc2C(=O)O)cc1` [Compound 214, 5-(2,4-DIFLUORO-PHENYL)-3-[METHYL-(4-METHYL-BENZOYL)-AMINO]-THIOPHENE-2-CARBOXYLIC ACID] was tested, and the IC50 was 5 to 20 µM. `Cc1ccc(C(=O)N(C)c2cc(-c3ccc(O)cc3)sc2C(=O)O)cc1` [Compound 215, 5-(4-HYDROXY-PHENYL)-3-[METHYL-(4-METHYL-BENZOYL)-AMINO]-THIOPHENE-2-CARBOXYLIC ACID] gave an IC50 of under 5 µM. Compound `Cc1ccc(C(=O)N(C)c2cc(-c3ccc(OC(F)(F)F)cc3)sc2C(=O)O)cc1` [Compound 216, 3-[METHYL-(4-METHYL-BENZOYL)-AMINO]-5-(4-TRIFLUOROMETHOXY-PHENYL)-THIOPHENE-2-CARBOXYLIC ACID] has an IC50 of 5 to 20 µM. For `Cc1ccccc1S(=O)(=O)Nc1cc(-c2ccccc2O)sc1C(=O)O` [Compound 217, 5-(2-HYDROXY-PHENYL)-3-(TOLUENE-2-SULFONYLAMINO)-THIOPHENE-2-CARBOXYLIC ACID], the IC50 was 5 to 20 µM. Compound `CC(C)N(C(=O)c1ccccc1Cl)c1cc(-c2ccccc2)sc1C(=O)O` [Compound 218, 3-[(2-CHLORO-BENZOYL)-ISOPROPYL-AMINO]-5-PHENYL-THIOPHENE-2-CARBOXYLIC ACID] has an IC50 of 5 to 20 µM. For `CC(C)N(C(=O)c1cc(Cl)cc(Cl)c1)c1cc(-c2ccccc2)sc1C(=O)O` [Compound 219, 3-[(3,5-DICHLORO-BENZOYL)-ISOPROPYL-AMINO]-5-PHENYL-THIOPHENE-2-CARBOXYLIC ACID], the IC50 was 5 to 20 µM. Compound `Cc1cc(Br)ccc1S(=O)(=O)Nc1cc(-c2ccccc2)sc1C(=O)O` [Compound 220, 3-(4-BROMO-2-METHYL-BENZENESULFONYLAMINO)-5-PHENYL-THIOPHENE-2-CARBOXYLIC ACID] has an IC50 of under 5 µM. In the case of `O=C(O)c1cc(S(=O)(=O)Nc2cc(-c3ccccc3)sc2C(=O)O)c(F)cc1Cl` [Compound 221, 3-(5-CARBOXY-4-CHLORO-2-FLUORO-BENZENESULFONYLAMINO)-5-PHENYL-THIOPHENE-2-CARBOXYLIC ACID], the IC50 is reported as over 20 µM. `O=C(O)c1sc(-c2ccccc2)cc1NS(=O)(=O)c1ccc(F)c(F)c1F` [Compound 222, 5-PHENYL-3-(2,3,4-TRIFLUORO-BENZENESULFONYLAMINO)-THIOPHENE-2-CARBOXYLIC ACID] was tested, and the IC50 was 5 to 20 µM. In the case of `CC(C)N(C(=O)c1ccc(F)cc1)c1cc(-c2ccccc2)sc1C(=O)O` [Compound 226, 3-[(4-FLUORO-BENZOYL)-ISOPROPYL-AMINO]-5-PHENYL-THIOPHENE-2-CARBOXYLIC ACID], the IC50 is reported as 5 to 20 µM. `CC(=O)c1ccc(-c2cc(NS(=O)(=O)c3ccccc3C)c(C(=O)O)s2)s1` [Compound 229, 5′-ACETYL-4-(TOLUENE-2-SULFONYLAMINO)-[2,2′]BITHIOPHENYL-5-CARBOXYLIC ACID] gave an IC50 of under 5 µM. `Cc1ccccc1S(=O)(=O)Nc1cc(-c2cc3ccccc3s2)sc1C(=O)O` [Compound 230, 5-BENZO[B]THIOPHEN-2-YL-3-(TOLUENE-2-SULFONYLAMINO)-THIOPHENE-2-CARBOXYLIC ACID] gave an IC50 of under 5 µM. Work on `CCCCc1ccc(-c2cc(NS(=O)(=O)c3ccccc3C)c(C(=O)O)s2)cc1` [Compound 231, 5-(4-BUTYL-PHENYL)-3-(TOLUENE-2-SULFONYLAMINO)-THIOPHENE-2-CARBOXYLIC ACID] yielded an IC50 of under 5 µM. Compound `CCc1ccc(-c2cc(NS(=O)(=O)c3ccccc3C)c(C(=O)O)s2)cc1` [Compound 232, 5-(4-ETHYL-PHENYL)-3-(TOLUENE-2-SULFONYLAMINO)-THIOPHENE-2-CARBOXYLIC ACID] has an IC50 of under 5 µM. `O=C(O)c1sc(-c2ccccc2)cc1N(Cc1ccccc1)C(=O)c1ccc(Cl)cc1Cl` [Compound 233, 3-[BENZYL-(2,4-DICHLORO-BENZOYL)-AMINO]-5-PHENYL-THIOPHENE-2-CARBOXYLIC ACID] gave an IC50 of under 5 µM.
